Legend:
Format in all cases: biochemical
FGFR2 = FGFR2 (Homo sapiens (Human), UniProt P21802); assay: FGFR enzymatic assay (FRET peptide phosphorylation), FGFR2; settings: FGFR2 enzyme 0.01 nM, ATP 100 μM
Outline: (§1)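 IC50 values were obtained from variable-slope sigmoidal dose-response fitting of a FRET read-out of peptide phosphorylation. The buffer, described for FGFR3, was 50 mM HEPES pH 7.5 with MgCl2, EGTA, Tween-20 and DTT.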

FGFR3 = FGFR3 (Homo sapiens (Human), UniProt P22607); assay: FGFR enzymatic assay (FRET peptide phosphorylation), FGFR3; settings: FGFR3 enzyme (Millipore), ATP 140 μM
Outline: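 After 5-10 min pre-incubation of FGFR3 with serially diluted compound in pH 7.5 HEPES/MgCl2/EGTA/DTT buffer, the reaction proceeded 1 hr at 25° C. Phosphorylated peptide was detected by FRET, and IC50 was fitted with a variable-slope sigmoid.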

FGFR1 = FGFR1 (Homo sapiens (Human), UniProt P11362); assay: FGFR enzymatic assay (FRET peptide phosphorylation), FGFR1; settings: FGFR1 enzyme 0.02 nM, ATP 210 μM
Outline: as §1

Measured: IC50

Sequence of FGFR2 (P21802 22-821): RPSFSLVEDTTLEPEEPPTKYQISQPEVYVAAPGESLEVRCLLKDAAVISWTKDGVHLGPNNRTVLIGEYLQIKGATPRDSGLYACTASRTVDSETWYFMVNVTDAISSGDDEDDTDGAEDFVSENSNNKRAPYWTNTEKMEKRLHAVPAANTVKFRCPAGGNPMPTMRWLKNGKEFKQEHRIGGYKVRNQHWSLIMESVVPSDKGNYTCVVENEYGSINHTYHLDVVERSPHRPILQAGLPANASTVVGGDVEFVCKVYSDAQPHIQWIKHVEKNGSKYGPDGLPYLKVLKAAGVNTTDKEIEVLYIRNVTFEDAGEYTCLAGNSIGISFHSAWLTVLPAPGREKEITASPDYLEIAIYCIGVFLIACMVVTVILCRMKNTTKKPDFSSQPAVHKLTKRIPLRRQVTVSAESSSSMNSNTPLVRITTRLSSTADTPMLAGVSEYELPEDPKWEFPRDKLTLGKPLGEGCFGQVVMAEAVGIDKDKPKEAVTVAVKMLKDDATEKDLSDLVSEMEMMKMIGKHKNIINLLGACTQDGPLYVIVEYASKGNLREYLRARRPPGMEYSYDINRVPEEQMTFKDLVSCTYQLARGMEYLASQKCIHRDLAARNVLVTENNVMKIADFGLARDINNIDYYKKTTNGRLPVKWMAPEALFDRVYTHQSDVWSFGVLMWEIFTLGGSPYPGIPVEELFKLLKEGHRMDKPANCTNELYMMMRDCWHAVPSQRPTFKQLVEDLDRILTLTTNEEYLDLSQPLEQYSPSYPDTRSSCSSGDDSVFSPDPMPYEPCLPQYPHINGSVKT
Sequence of FGFR1 (P11362 22-822): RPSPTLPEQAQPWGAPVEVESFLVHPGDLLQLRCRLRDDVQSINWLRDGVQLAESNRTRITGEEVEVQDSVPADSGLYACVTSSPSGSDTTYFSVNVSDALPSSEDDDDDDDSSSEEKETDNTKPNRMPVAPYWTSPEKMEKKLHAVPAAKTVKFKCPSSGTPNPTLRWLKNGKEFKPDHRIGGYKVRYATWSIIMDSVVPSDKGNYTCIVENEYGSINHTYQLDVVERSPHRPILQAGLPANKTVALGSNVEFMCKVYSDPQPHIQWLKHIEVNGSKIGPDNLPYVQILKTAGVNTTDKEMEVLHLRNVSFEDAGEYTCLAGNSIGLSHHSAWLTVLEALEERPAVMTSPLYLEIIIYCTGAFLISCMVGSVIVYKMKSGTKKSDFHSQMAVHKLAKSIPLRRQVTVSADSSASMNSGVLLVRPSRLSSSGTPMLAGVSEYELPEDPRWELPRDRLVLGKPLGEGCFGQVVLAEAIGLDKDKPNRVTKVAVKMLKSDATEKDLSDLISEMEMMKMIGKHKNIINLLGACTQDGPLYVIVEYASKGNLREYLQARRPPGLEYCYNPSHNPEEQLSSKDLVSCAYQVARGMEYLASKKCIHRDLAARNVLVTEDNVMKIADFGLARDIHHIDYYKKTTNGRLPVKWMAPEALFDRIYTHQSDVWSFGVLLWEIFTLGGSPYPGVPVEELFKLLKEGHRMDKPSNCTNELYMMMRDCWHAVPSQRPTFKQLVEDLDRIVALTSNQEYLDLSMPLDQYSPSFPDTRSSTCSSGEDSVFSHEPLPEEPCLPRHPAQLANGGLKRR
Sequence of FGFR3 (P22607 23-806): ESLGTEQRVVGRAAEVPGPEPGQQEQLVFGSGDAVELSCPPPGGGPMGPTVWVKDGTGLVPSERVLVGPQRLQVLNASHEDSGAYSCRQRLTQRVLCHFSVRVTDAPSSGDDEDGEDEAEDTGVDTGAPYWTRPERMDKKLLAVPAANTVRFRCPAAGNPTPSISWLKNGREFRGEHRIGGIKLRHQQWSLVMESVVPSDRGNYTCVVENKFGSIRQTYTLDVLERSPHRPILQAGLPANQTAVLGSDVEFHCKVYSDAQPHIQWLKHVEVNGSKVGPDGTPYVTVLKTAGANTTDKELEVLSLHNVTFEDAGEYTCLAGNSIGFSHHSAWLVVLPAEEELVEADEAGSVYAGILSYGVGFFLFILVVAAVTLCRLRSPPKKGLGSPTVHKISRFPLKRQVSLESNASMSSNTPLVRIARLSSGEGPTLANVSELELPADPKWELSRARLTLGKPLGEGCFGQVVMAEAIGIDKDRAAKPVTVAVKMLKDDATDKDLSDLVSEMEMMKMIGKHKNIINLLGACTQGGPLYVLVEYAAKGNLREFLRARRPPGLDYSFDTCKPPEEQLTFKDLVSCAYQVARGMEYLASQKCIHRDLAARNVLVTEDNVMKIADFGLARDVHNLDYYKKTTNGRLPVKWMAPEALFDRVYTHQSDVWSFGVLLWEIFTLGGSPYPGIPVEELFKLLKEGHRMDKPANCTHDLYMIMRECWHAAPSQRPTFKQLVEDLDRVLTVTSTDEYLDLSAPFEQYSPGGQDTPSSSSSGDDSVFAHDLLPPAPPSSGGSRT

COc1cc(OC)c(F)c(N2Cc3cnc4[nH]c(CN5CCN(C)CC5)cc4c3N(c3ccncc3)C2=O)c1F [Example 195, 3-(2,6-difluoro-3,5-dimethoxyphenyl)-8-[(4-methylpiperazin-1-yl)methyl]-1-pyridin-4-yl-1,3,4,7-tetrahydro-2H-pyrrolo[3′,2′:5,6]pyrido[4,3-d]pyrimidin-2-one]
< 100 nM: all assays above

COc1cc(OC)c(F)c(N2Cc3cnc4[nH]c(CCN5CCOCC5)cc4c3N(c3ccccc3F)C2=O)c1F [Example 196, 3-(2,6-difluoro-3,5-dimethoxyphenyl)-1-(2-fluorophenyl)-8-(2-morpholin-4-ylethyl)-1,3,4,7-tetrahydro-2H-pyrrolo[3′,2′:5,6]pyrido[4,3-d]pyrimidin-2-one]
< 100 nM: all assays above

COc1cc(OC)c(F)c(N2Cc3cnc4[nH]c(CCN5CCN(C)CC5)cc4c3N(c3ccccc3F)C2=O)c1F [Example 197, 3-(2,6-difluoro-3,5-dimethoxyphenyl)-1-(2-fluorophenyl)-8-[2-(4-methylpiperazin-1-yl)ethyl]-1,3,4,7-tetrahydro-2H-pyrrolo[3′,2′:5,6]pyrido[4,3-d]pyrimidin-2-one]
< 100 nM: all assays above

CCN1CCN(CCc2cc3c4c(cnc3[nH]2)CN(c2c(F)c(OC)cc(OC)c2F)C(=O)N4c2ccccc2F)CC1 [Example 198, 3-(2,6-difluoro-3,5-dimethoxyphenyl)-1-(2-fluorophenyl)-8-[2-(4-ethylpiperazin-1-yl)ethyl]-1,3,4,7-tetrahydro-2H-pyrrolo[3′,2′:5,6]pyrido[4,3-d]pyrimidin-2-one]
< 100 nM: all assays above

COc1cc(OC)c(F)c(N2Cc3cnc4[nH]ncc4c3N(c3cccc(C(=O)NC(C)C)c3F)C2=O)c1F [Example 199, 3-[3-(2,6-difluoro-3,5-dimethoxyphenyl)-2-oxo-2,3,4,7-tetrahydro-1H-pyrazolo[4′,3′:5,6]pyrido[4,3-d]pyrimidin-1-yl]-2-fluoro-N-isopropylbenzamide]
< 100 nM: all assays above

COc1cc(OC)c(F)c(N2Cc3cnc4[nH]ncc4c3N(c3cccc(C(=O)NC4CC4)c3F)C2=O)c1F [Example 200, N-cyclopropyl-3-[3-(2,6-difluoro-3,5-dimethoxyphenyl)-2-oxo-2,3,4,7-tetrahydro-1H-pyrazolo[4′,3′:5,6]pyrido[4,3-d]pyrimidin-1-yl]-2-fluorobenzamide]
< 100 nM: all assays above

CCNC(=O)c1cccc(N2C(=O)N(c3c(F)c(OC)cc(OC)c3F)Cc3cnc4[nH]ncc4c32)c1F [Example 201, 3-[3-(2,6-difluoro-3,5-dimethoxyphenyl)-2-oxo-2,3,4,7-tetrahydro-1H-pyrazolo[4′,3′:5,6]pyrido[4,3-d]pyrimidin-1-yl]-N-ethyl-2-fluorobenzamide]
< 100 nM: all assays above

COc1cc(CN2C(=O)N(c3c(F)c(OC)cc(OC)c3F)Cc3cnc4[nH]c(CN5CCOCC5)cc4c32)ccn1 [Example 202, 3-(2,6-difluoro-3,5-dimethoxyphenyl)-1-[(2-methoxypyridin-4-yl)methyl]-8-(morpholin-4-ylmethyl)-1,3,4,7-tetrahydro-2H-pyrrolo[3′,2′:5,6]pyrido[4,3-d]pyrimidin-2-one]
< 100 nM: all assays above

COc1cc(OC)c(F)c(N2Cc3cnc4[nH]c(CN5CCOCC5)cc4c3N(c3cnn(C)c3)C2=O)c1F [Example 203, 3-(2,6-difluoro-3,5-dimethoxyphenyl)-1-(1-methyl-1H-pyrazol-4-yl)-8-(morpholin-4-ylmethyl)-1,3,4,7-tetrahydro-2H-pyrrolo[3′,2′:5,6]pyrido[4,3-d]pyrimidin-2-one]
< 100 nM: all assays above

COc1cc(OC)c(F)c(N2Cc3cnc4[nH]c(CN5CCN(C)CC5)cc4c3N(c3cnn(C)c3)C2=O)c1F [Example 204, 3-(2,6-difluoro-3,5-dimethoxyphenyl)-8-[(4-methylpiperazin-1-yl)methyl]-1-(1-methyl-1H-pyrazol-4-yl)-1,3,4,7-tetrahydro-2H-pyrrolo[3′,2′:5,6]pyrido[4,3-d]pyrimidin-2-one]
< 100 nM: all assays above

CCN1CCN(Cc2cc3c4c(cnc3[nH]2)CN(c2c(F)c(OC)cc(OC)c2F)C(=O)N4c2cnn(C)c2)CC1 [Example 205, 3-(2,6-difluoro-3,5-dimethoxyphenyl)-8-[(4-ethylpiperazin-1-yl)methyl]-1-(1-methyl-1H-pyrazol-4-yl)-1,3,4,7-tetrahydro-2H-pyrrolo[3′,2′:5,6]pyrido[4,3-d]pyrimidin-2-one]
< 100 nM: all assays above

COc1cc(OC)c(F)c(N2Cc3cnc4[nH]c(CN5CC(O)C5)cc4c3C(C)(C)C2=O)c1F [Example 206, 7-(2,6-difluoro-3,5-dimethoxyphenyl)-2-[(3-hydroxyazetidin-1-yl)methyl]-9,9-dimethyl-3,6,7,9-tetrahydro-8H-pyrrolo[2,3-c]-2,7-naphthyridin-8-one]
< 100 nM: all assays above

COc1cc(OC)c(F)c(N2Cc3cnc4[nH]c(CN5CC(F)C5)cc4c3C(C)(C)C2=O)c1F [Example 207, 7-(2,6-difluoro-3,5-dimethoxyphenyl)-2-[(3-fluoroazetidin-1-yl)methyl]-9,9-dimethyl-3,6,7,9-tetrahydro-8H-pyrrolo[2,3-c]-2,7-naphthyridin-8-one]
< 100 nM: all assays above

COc1cc(OC)c(F)c(N2Cc3cnc4[nH]c(CN5CC(C#N)C5)cc4c3N(C)C2=O)c1F [Example 208, 1-{[3-(2,6-difluoro-3,5-dimethoxyphenyl)-1-methyl-2-oxo-2,3,4,7-tetrahydro-1H-pyrrolo[3′,2′:5,6]pyrido[4,3-d]pyrimidin-8-yl]methyl}azetidine-3-carbonitrile]
< 100 nM: all assays above

COc1cc(OC)c(F)c(N2Cc3cnc4[nH]c(CN5CC[C@@H](C#N)C5)cc4c3N(C)C2=O)c1F [Example 209, (3R)-1-{[3-(2,6-difluoro-3,5-dimethoxyphenyl)-1-methyl-2-oxo-2,3,4,7-tetrahydro-1H-pyrrolo[3′,2′:5,6]pyrido[4,3-d]pyrimidin-8-yl]methyl}pyrrolidine-3-carbonitrile]
< 100 nM: all assays above

COc1cc(OC)c(F)c(N2Cc3cnc4[nH]c(CCN5CC(F)C5)cc4c3N(CCO)C2=O)c1F [Example 210, 3-(2,6-difluoro-3,5-dimethoxyphenyl)-8-[2-(3-fluoroazetidin-1-yl)ethyl]-1-(2-hydroxyethyl)-1,3,4,7-tetrahydro-2H-pyrrolo[3′,2′:5,6]pyrido[4,3-d]pyrimidin-2-one]
< 100 nM: all assays above

COc1cc(OC)c(F)c(N2Cc3cnc4[nH]c(CN5CCOCC5)cc4c3N(c3cccc(F)c3F)C2=O)c1F [Example 211, 3-(2,6-difluoro-3,5-dimethoxyphenyl)-1-(2,3-difluorophenyl)-8-(morpholin-4-ylmethyl)-1,3,4,7-tetrahydro-2H-pyrrolo[3′,2′:5,6]pyrido[4,3-d]pyrimidin-2-one]
< 100 nM: all assays above

COc1cc(OC)c(F)c(N2Cc3cnc4[nH]c(CN5CCOCC5)cc4c3N(c3cccc(F)c3)C2=O)c1F [Example 212, 3-(2,6-difluoro-3,5-dimethoxyphenyl)-1-(3-fluorophenyl)-8-(morpholin-4-ylmethyl)-1,3,4,7-tetrahydro-2H-pyrrolo[3′,2′:5,6]pyrido[4,3-d]pyrimidin-2-one]
< 100 nM: all assays above

COc1cc(OC)c(F)c(N2Cc3cnc4[nH]c(CN5CCN(C)CC5)cc4c3N(c3cccc(F)c3)C2=O)c1F [Example 213, 3-(2,6-difluoro-3,5-dimethoxyphenyl)-1-(3-fluorophenyl)-8-[(4-methylpiperazin-1-yl)methyl]-1,3,4,7-tetrahydro-2H-pyrrolo[3′,2′:5,6]pyrido[4,3-d]pyrimidin-2-one]
< 100 nM: all assays above

COc1cc(OC)c(F)c(N2Cc3cnc4[nH]nc(-c5cnn(C)c5)c4c3N(C)C2=O)c1F [Example 215, 3-(2,6-difluoro-3,5-dimethoxyphenyl)-1-methyl-9-(1-methyl-1H-pyrazol-4-yl)-1,3,4,7-tetrahydro-2H-pyrazolo[4′,3′:5,6]pyrido[4,3-d]pyrimidin-2-one]
< 100 nM: all assays above
